{
  "source": "patent US10167313B2",
  "about": "“Selective caspase inhibitors and uses thereof” (Genesis Technologies Limited, priority 2008, dated 2019)",
  "key": {"caspase-9": {"target": "caspase-9 (Homo sapiens (Human), UniProt P55211)", "sequence (P55211 1-315)": "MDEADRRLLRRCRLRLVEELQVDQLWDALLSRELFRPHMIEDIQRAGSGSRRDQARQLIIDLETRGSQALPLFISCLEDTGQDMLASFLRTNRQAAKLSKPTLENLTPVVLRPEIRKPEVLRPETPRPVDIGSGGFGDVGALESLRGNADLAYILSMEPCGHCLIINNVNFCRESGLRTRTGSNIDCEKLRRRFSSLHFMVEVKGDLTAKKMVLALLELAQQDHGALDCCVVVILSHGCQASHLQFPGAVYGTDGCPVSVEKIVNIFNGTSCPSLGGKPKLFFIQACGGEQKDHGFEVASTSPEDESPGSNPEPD", "sequence (P55211 331-416)": "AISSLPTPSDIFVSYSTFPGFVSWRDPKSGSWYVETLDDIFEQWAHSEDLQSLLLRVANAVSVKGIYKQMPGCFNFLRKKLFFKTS", "assay": "Caspase-9 Inhibitor Drug Screening Kit, fluorometric enzymatic assay", "conditions": "for IC50: read-out: Caspase enzymatic activity, IC50 (uM) Caspase 9, 30-minute incubation at 37° C., AFC liberation", "procedure": "(§1) The level of inhibition of caspase-1, -3, -5, -7, -9 activity was determined by comparison of the relative fluorescence intensity in samples with or without the compound."}, "caspase-5": {"target": "caspase-5 (Homo sapiens (Human), UniProt P51878)", "sequence (P51878 137-327)": "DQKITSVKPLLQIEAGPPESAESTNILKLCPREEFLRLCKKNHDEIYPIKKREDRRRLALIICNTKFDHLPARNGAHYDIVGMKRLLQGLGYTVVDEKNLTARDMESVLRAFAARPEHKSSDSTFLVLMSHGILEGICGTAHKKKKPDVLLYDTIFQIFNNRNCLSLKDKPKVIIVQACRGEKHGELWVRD", "sequence (P51878 347-434)": "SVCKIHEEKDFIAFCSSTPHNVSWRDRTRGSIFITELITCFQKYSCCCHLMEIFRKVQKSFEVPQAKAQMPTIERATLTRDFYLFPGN", "assay": "Caspase-5 Inhibitor Drug Screening Kit, fluorometric enzymatic assay", "conditions": "for IC50: read-out: Caspase enzymatic activity, IC50 (uM) Caspase 5, 30-minute incubation at 37° C., AFC liberation", "procedure": "as §1"}, "caspase-7": {"target": "caspase-7 (Homo sapiens (Human), UniProt P55210)", "sequence (P55210 24-198)": "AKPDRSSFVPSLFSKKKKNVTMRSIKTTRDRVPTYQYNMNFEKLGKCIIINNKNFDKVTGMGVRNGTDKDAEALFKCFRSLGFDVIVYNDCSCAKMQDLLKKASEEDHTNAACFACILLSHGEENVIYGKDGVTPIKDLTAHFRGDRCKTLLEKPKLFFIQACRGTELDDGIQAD", "sequence (P55210 207-303)": "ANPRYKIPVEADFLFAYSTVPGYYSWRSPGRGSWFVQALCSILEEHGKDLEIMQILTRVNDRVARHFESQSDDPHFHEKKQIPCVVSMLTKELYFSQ", "assay": "Caspase-7 Inhibitor Drug Screening Kit, fluorometric enzymatic assay", "conditions": "based on the IC50 values", "procedure": "as §1"}, "Caspase 3/7 (Glo3/7)": {"target": "Caspase 3/7 (Glo3/7)", "assay": "Glo3/7 assay"}, "Hela cells": {"tested_on": "Hela cells", "assay": "Inhibition of proteolytic cleavage of PARP in staurosporine-treated live Hela cells", "format": "cell-based", "conditions": "for inhibition at 50 µM: Homo sapiens", "method": "To test the efficacy of caspase-3 inhibitors at the cellular level, the ability of selected compounds to inhibit the proteolytic cleavage of PARP (poly ADP-ribose polymerase) was evaluated in live Hela cells.\nBriefly, in this assay Hela cells are seeded in 96 well plates and incubated for 4 hours with staurosporine, a well characterized inducer of apoptosis, alone or together with different concentrations of compound (50, 25, 10 and 3 uM). After formaldehyde-based fixation, the cells are stained with a fluorescein-labeled anti-cleaved PARP antibody (Cell signaling, Cat#: 9547) and counterstained with Hoechst33342 (Invitrogen, Cat#: H3570) to mark all nuclei. Fluorescence images are taken on a Cellomics™ microscope system (Thermo Scientific, Pittsburgh, USA) with the Hoechst stain in the blue channel and the cleaved PARP antibody stain in the green channel. The percentage of cleaved PARP positive cells is determined by calculating the ratio between nuclei with a cleaved PARP antibody staining above a certain threshold and all (Hoechst positive) nuclei. The efficacy of caspase-3 inhibition is determined by calculating the ratio between cleaved PARP positive cells after staurosporine incubation together with compounds and staurosporine incubation without compounds."}, "caspase-1": {"target": "caspase-1 (Homo sapiens (Human), UniProt P29466)", "sequence (P29466 120-297)": "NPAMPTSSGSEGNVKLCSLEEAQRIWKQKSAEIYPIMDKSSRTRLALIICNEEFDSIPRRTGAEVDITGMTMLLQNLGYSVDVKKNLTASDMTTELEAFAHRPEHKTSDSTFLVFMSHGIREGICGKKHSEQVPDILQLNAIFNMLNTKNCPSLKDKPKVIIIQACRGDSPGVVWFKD", "sequence (P29466 317-404)": "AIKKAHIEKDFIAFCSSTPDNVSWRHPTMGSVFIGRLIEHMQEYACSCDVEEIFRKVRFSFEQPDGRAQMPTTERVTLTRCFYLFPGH", "assay": "Caspase-1 Inhibitor Drug Screening Kit, fluorometric enzymatic assay", "procedure": "as §1"}, "[1]": {"conditions": "50 uM, relative to DEVDFMK, read-out: % of inhibition with compound relative to DEVDFMK"}, "[2]": {"conditions": "read-out: % inhibition of PARP cleavage at 50 uM compound, staurosporine 4 hours, 50 uM compound"}},
  "note": "Like-named read-outs stand apart in the source and are kept apart here.",
  "data": [
    {"smiles": "CC(C)[C@H](NC(=O)[C@@H](NC(=O)[C@H](CC(=O)O)NC(=O)OCc1ccccc1)c1ccccc1)C(=O)N[C@H](/C=C/S(C)(=O)=O)CC(=O)O", "note": "[Compound 53, Z-Asp-Phg-Val-Aspmethyl vinyl sulfone]", "values": [
      {"measurement": "IC50", "setting": "caspase-9", "result": "> 10", "unit": "µM"},
      {"measurement": "IC50", "setting": "caspase-5", "result": "> 10", "unit": "µM"},
      {"measurement": "selectivity of caspase-3 over caspase-7 (IC50 fold difference)", "setting": "caspase-7", "result": "about 12 fold"},
      {"measurement": "IC50", "setting": "Caspase 3/7 (Glo3/7)", "result": 0.1, "unit": "µM"},
      {"measurement": "reduction of the percentage of PARP positive cells after staurosporine treatment", "setting": "Hela cells", "result": "more than 50%"},
      {"measurement": "inhibition at 50 µM", "setting": "Hela cells; [1]", "result": 80, "unit": "%"},
      {"measurement": "inhibition at 50 µM", "setting": "Hela cells; [2]", "result": 55, "unit": "%"},
      {"measurement": "effectivity in inhibiting PARP cleavage (in words)", "setting": "Hela cells; relative to DEVD-fmk", "result": "highly effective relative to DEVD-fmk"}
    ]},
    {"smiles": "CC(C)[C@H](NC(=O)[C@H](Cc1ccc2ccccc2n1)NC(=O)[C@H](CC(=O)O)NC(=O)OCc1ccccc1)C(=O)N[C@H](/C=C/S(=O)(=O)c1ccccc1)CC(=O)O", "note": "[Compound 63, Z-Asp-Ala(2′-quinolyl)-Val-Aspphenyl vinyl sulfone]", "values": [
      {"measurement": "IC50", "setting": "caspase-9", "result": "> 3.33", "unit": "µM"},
      {"measurement": "inhibitory activity for caspase-9 (in words)", "setting": "caspase-9; tested dose-range 1-3333 nM", "result": "No significant inhibitory activity"},
      {"measurement": "IC50", "setting": "caspase-5", "result": "> 3.33", "unit": "µM"},
      {"measurement": "inhibitory activity for caspase-5 (in words)", "setting": "caspase-5; tested dose-range 1-3333 nM", "result": "No significant inhibitory activity"},
      {"measurement": "selectivity of caspase-3 over caspase-7 (IC50 fold difference)", "setting": "caspase-7", "result": "~50", "unit": "fold"},
      {"measurement": "IC50", "setting": "caspase-1; read-out: Caspase enzymatic activity, IC50 (uM) Caspase 1, 30-minute incubation at 37° C., AFC liberation", "result": "> 3.33", "unit": "µM"},
      {"measurement": "inhibitory activity for caspase-1 (in words)", "setting": "caspase-1; tested dose-range 1-3333 nM", "result": "No significant inhibitory activity"},
      {"measurement": "IC50", "setting": "Caspase 3/7 (Glo3/7)", "result": 0.9, "unit": "µM"},
      {"measurement": "inhibition at 50 µM", "setting": "Hela cells; [1]", "result": 15, "unit": "%"},
      {"measurement": "inhibition at 50 µM", "setting": "Hela cells; [2]", "result": 10, "unit": "%"}
    ]},
    {"smiles": "CC(C)[C@H](NC(=O)[C@@H](NC(=O)[C@H](CC(=O)O)NC(=O)OCc1ccccc1)C1Cc2ccccc2C1)C(=O)N[C@H](/C=C/S(C)(=O)=O)CC(=O)O", "note": "[Compound 57, Z-Asp-Indanylglycine-Val-Aspmethyl vinyl sulfone]", "values": [
      {"measurement": "IC50", "setting": "caspase-9", "result": "> 3.33", "unit": "µM"},
      {"measurement": "IC50", "setting": "caspase-5", "result": "> 3.33", "unit": "µM"},
      {"measurement": "fold less efficiency against caspase-1 than against group III caspases", "setting": "caspase-1", "result": "about 29 fold"},
      {"measurement": "IC50", "setting": "Caspase 3/7 (Glo3/7)", "result": 0.1, "unit": "µM"},
      {"measurement": "inhibition at 50 µM", "setting": "Hela cells; [1]", "result": 70, "unit": "%"},
      {"measurement": "inhibition at 50 µM", "setting": "Hela cells; [2]", "result": 65, "unit": "%"}
    ]}
  ]
}
